Measurements as given in ChEMBL document CHEMBL1795257, “Synthesis of new opioid derivatives with a propellane skeleton and their pharmacology: part 1” (Bioorg Med Chem Lett, 2011).
Active and inactive are the calls of the source. The calls are words filed in the database; no cut-off is given here.

How the values were obtained:
[1] = species: Cavia porcellus; experiment: Selectivity ratio of Ki for delta opioid receptor in guinea pig forebrain homogenate to Ki for kappa opioid receptor in guinea pig cerebellum homogenate; format: tissue-based
[2] = target: Kappa-type opioid receptor (Cavia porcellus, UniProt P41144); experiment: Displacement of [3H]U69593 from kappa opioid receptor in guinea pig cerebellum homogenate by scintillation counting; format: tissue-based
Kappa-type opioid receptor, sequence (P41144 whole entry): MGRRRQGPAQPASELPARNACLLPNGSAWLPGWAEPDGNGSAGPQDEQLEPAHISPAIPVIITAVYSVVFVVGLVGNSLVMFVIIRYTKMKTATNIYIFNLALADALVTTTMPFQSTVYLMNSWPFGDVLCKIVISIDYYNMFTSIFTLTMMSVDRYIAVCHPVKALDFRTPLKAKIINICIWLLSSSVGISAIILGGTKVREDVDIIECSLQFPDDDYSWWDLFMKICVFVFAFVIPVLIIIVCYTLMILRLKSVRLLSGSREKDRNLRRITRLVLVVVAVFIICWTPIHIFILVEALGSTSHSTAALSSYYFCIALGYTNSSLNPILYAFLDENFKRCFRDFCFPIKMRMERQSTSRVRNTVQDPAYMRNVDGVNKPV

[3] = Displacement of [3H]NTI from delta opioid receptor in guinea pig forebrain homogenate by scintillation counting; format: tissue-based, Cavia porcellus, Brain
[4] = target: Mu-type opioid receptor (Cavia porcellus, UniProt P97266); experiment: Displacement of [3H]DAMGO from mu opioid receptor in guinea pig forebrain homogenate by scintillation counting; format: tissue-based, Brain
Mu-type opioid receptor, sequence (P97266 whole entry): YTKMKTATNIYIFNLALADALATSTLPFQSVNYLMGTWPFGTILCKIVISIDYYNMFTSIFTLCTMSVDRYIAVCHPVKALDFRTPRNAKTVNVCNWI

[5] = system: Mus musculus; experiment: Antinociceptive activity in sc dosed mouse assessed as inhibition of acetic acid-induced writhing; format: functional
[6] = system: Mus musculus; experiment: Antinociceptive activity in sc dosed mouse assessed as inhibition of acetic acid-induced writhing in presence of kappa opioid antagonist nor-BNI; format: functional, organism-based
[7] = system: Mus musculus; experiment: Antinociceptive activity in sc dosed mouse assessed as inhibition of acetic acid-induced writhing in presence of mu opioid […] naloxone; format: functional, organism-based

## OCC12CC[C@@]3(O1)[C@H]1Cc4ccc(O)cc4[C@@]3(CCN1CC1CC1)C2
[1]
  Ratio Ki: 35

## O=C1CCC23Cc4ccc(O)cc4C2(CCN(CC2(O)CC2)C3)C1 (centres undefined)
[1]
  Ratio Ki: 23
[2]
  Ki: 21.7 nM
[3]
  Ki: 500 nM
[4]
  Ki: 77.7 nM

## CC(C)=CCN1CC[C@@]2(C)c3cc(O)ccc3C[C@@H]1[C@@H]2C
[1]
  Ratio Ki: 6.4
[2]
  Ki: 3.6 nM
[3]
  Ki: 23.1 nM
[4]
  Ki: 4.6 nM

## CN1CC[C@]23c4c5ccc(O)c4O[C@H]2C(=O)CC[C@@]3(O)[C@H]1C5 [OXYMORPHONE]
[3]
  Ki: 42.7 nM

## CN1CC[C@]23c4c5ccc(O)c4O[C@H]2[C@@H](O)C=C[C@H]3[C@H]1C5
[5]
  Activity: Active

## O=C1CCC23Cc4ccc(O)cc4C2(CCN(CC2CC2)C3)C1 (centres undefined)
[1]
  Ratio Ki: 26
[2]
  Ki: 17.4 nM
[3]
  Ki: 448 nM
[4]
  Ki: 58.2 nM
[5]
  ED50: 0.86 mg/kg
[6]
  Activity: inactive
[7]
  Activity: inactive

## CCC12CCN(CC3(O)CC3)[C@H](Cc3ccc(O)cc31)C2(C)C
[3]
  Ki: 0.9 nM
[4]
  Ki: 0.2 nM

## O=C1CC[C@@]2(O)[C@H]3Cc4ccc(O)cc4[C@@]2(CCN3CC2CC2)C1
[1]
  Ratio Ki: 48
[2]
  Ki: 0.038 nM
[3]
  Ki: 1.82 nM
[4]
  Ki: 0.14 nM

## Oc1ccc2c3c1OC1C4(O)CC[C@@]5(OC4)[C@@H](C2)N(CC2CC2)CC[C@]315 (some centres undefined)
[1]
  Ratio Ki: 30
[2]
  Ki: 0.34 nM
[3]
  Ki: 10.3 nM
[4]
  Ki: 0.16 nM

## CN1CCC23CC(=O)CCC2(Cc2ccc(O)cc23)C1 (centres undefined)
[1]
  Ratio Ki: 1.7
[2]
  Ki: 255 nM
[3]
  Ki: 441 nM
[4]
  Ki: 3.6 nM

## O=C1CC[C@@]2(O)[C@H]3Cc4ccc(O)c5c4[C@@]2(CCN3CC2CC2)[C@H]1O5
[1]
  Ratio Ki: 56

## O=C1CC23CCN(CC4CC4)C(Cc4ccc(O)cc42)C32CCC1O2 (centres undefined)
[1]
  Ratio Ki: 30
